According to paper PMC9030254, “Target Hopping from Protein Kinases to PXR: Identification of Small-Molecule Protein Kinase Inhibitors as Selective Modulators of Pregnane X Receptor from TüKIC Library” (Cells, 2022):

Key:
Assay in all cases: Kinase profiling
Assay type in all cases: biochemical
[1] = biological target: T1, MEK1 (Homo sapiens, UniProt Q02750)
T1 construct: purchased ProQinase (Freiburg, Germany)
Description: (§1) The analysis was performed by ProQinase (Freiburg, Germany).

[2] = biological target: T2, ACVR1 (Homo sapiens, UniProt Q04771)
T2 construct: purchased ProQinase (Freiburg, Germany)
T2 sequence (Q04771 21-509): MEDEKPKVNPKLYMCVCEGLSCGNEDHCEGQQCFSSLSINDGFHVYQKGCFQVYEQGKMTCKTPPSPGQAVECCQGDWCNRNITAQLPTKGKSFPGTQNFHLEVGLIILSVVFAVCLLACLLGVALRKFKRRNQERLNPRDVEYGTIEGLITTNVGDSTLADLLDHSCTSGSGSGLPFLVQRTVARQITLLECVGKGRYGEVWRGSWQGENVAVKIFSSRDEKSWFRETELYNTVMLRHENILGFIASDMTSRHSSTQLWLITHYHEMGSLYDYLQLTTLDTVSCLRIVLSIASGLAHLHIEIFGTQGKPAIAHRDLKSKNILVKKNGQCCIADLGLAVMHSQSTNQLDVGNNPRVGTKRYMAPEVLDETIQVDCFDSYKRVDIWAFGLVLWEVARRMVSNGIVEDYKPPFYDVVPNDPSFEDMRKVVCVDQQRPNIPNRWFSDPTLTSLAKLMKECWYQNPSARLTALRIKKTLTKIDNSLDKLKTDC
Description: as §1

[3] = biological target: T3, DYRK4 (Homo sapiens, UniProt Q9NR20)
T3 construct: purchased ProQinase (Freiburg, Germany)
T3 sequence (Q9NR20 1-520): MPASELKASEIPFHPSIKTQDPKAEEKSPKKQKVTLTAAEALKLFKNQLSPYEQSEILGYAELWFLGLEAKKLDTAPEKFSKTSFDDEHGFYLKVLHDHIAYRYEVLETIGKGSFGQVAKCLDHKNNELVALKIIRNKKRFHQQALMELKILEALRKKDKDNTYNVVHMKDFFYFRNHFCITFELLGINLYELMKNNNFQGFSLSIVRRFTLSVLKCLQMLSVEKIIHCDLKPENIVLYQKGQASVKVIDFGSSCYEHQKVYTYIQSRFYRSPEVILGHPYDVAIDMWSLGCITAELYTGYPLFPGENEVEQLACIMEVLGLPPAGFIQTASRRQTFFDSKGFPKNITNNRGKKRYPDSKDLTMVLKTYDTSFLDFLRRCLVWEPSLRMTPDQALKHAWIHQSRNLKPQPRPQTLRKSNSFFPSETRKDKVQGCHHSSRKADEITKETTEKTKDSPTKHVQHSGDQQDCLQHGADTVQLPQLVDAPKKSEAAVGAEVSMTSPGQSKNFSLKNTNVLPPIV
Description: as §1

[4] = biological target: T4, BRSK1 (Homo sapiens, UniProt Q8TDC3)
T4 construct: purchased ProQinase (Freiburg, Germany)
T4 sequence (Q8TDC3 1-778): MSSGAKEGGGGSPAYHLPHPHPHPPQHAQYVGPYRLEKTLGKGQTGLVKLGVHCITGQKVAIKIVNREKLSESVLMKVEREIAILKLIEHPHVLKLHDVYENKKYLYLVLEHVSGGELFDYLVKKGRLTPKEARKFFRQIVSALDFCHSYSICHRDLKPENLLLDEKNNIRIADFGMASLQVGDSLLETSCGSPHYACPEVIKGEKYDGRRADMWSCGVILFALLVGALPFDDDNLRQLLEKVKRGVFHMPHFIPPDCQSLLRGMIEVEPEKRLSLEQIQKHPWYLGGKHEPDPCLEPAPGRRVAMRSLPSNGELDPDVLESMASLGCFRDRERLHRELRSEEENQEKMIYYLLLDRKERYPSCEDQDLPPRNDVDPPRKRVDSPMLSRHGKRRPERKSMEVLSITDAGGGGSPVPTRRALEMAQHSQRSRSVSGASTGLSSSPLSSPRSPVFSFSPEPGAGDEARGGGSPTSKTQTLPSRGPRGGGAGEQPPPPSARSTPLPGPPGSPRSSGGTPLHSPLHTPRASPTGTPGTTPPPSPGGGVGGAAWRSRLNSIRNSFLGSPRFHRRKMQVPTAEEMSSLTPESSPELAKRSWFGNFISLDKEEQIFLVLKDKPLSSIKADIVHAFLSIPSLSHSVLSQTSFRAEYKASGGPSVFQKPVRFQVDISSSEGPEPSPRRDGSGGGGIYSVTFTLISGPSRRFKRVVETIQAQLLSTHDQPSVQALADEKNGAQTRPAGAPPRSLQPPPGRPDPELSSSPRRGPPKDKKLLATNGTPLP
Description: as §1

[5] = biological target: T5, MKK7 (Homo sapiens, UniProt O14733)
T5 construct: purchased ProQinase (Freiburg, Germany)
T5 sequence (O14733 1-419): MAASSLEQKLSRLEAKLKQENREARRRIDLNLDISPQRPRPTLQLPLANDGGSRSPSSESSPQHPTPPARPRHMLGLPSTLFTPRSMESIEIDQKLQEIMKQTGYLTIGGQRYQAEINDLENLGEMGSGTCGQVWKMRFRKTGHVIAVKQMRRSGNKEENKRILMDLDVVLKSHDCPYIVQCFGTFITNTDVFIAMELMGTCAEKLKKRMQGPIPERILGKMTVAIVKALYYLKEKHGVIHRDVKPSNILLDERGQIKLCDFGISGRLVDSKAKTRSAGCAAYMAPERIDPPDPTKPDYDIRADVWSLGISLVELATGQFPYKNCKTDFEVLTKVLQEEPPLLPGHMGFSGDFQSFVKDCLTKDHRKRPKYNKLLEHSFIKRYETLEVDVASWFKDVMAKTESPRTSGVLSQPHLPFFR
Description: as §1

[6] = biological target: T6, EPHA7 (Homo sapiens, UniProt Q15375)
T6 construct: purchased ProQinase (Freiburg, Germany)
Description: as §1

T6 sequence (Q15375 28-998): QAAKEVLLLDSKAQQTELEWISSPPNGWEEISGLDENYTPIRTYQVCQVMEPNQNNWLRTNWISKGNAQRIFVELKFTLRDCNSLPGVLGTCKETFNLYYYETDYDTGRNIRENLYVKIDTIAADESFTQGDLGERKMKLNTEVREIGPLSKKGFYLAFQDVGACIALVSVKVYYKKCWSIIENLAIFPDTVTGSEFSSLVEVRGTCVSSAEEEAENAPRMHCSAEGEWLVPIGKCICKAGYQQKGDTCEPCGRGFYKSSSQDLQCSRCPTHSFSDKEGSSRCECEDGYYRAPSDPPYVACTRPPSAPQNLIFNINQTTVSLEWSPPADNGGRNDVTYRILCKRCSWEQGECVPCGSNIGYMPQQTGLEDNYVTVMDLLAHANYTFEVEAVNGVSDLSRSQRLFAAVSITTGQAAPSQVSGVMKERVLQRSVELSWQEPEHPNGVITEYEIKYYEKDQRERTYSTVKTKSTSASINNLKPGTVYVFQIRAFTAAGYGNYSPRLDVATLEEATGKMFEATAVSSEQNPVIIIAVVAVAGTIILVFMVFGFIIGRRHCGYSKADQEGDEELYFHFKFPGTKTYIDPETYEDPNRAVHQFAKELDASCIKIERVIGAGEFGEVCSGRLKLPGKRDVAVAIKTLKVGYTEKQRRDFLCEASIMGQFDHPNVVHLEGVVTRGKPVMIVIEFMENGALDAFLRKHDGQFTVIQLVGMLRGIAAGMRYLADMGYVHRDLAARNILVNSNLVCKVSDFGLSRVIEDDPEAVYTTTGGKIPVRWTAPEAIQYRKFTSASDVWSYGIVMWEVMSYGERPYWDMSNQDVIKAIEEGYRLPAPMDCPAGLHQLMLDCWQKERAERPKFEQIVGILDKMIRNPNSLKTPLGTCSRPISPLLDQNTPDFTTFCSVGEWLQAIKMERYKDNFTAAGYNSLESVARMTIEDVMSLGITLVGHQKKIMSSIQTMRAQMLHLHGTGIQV
T1 sequence (Q02750 whole entry): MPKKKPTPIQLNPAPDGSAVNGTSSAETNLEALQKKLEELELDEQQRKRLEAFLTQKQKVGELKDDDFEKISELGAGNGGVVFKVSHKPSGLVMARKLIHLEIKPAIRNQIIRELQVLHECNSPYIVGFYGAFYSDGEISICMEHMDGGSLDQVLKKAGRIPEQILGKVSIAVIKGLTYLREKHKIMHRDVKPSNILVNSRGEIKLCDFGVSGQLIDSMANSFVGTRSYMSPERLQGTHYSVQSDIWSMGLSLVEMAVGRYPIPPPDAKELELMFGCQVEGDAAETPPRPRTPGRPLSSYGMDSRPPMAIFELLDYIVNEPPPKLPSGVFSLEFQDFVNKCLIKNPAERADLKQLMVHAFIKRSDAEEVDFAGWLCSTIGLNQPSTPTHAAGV

O=C(Nc1ccc(F)c(Nc2ccc3c(c2)CCCCC3=O)c1)c1cccc(F)c1 [Compound 109]
Residual activity ([1]; 1.0E-05 M): 109 % of control
Residual activity ([1]; 1.0E-06 M): 109 % of control
Residual activity ([2]; 1.0E-05 M): 97 % of control
Residual activity ([2]; 1.0E-06 M): 88 % of control
Residual activity ([3]; 1.0E-05 M): 87 % of control
Residual activity ([3]; 1.0E-06 M): 89 % of control
Residual activity ([4]; 1.0E-05 M): 92 % of control
Residual activity ([4]; 1.0E-06 M): 92 % of control
Residual activity ([5]; 1.0E-05 M): 90 % of control
Residual activity ([5]; 1.0E-06 M): 84 % of control
Residual activity ([6]; 1.0E-05 M): 96 % of control
Residual activity ([6]; 1.0E-06 M): 85 % of control

O=C(Cc1ccccc1)Nc1ccc(F)c(Nc2ccc3c(c2)CCCCC3=O)c1 [Compound 100]
Residual activity ([1]; 1.0E-05 M): 114 % of control
Residual activity ([1]; 1.0E-06 M): 112 % of control
Residual activity ([2]; 1.0E-05 M): 93 % of control
Residual activity ([2]; 1.0E-06 M): 97 % of control
Residual activity ([3]; 1.0E-05 M): 94 % of control
Residual activity ([3]; 1.0E-06 M): 98 % of control
Residual activity ([4]; 1.0E-05 M): 91 % of control
Residual activity ([4]; 1.0E-06 M): 101 % of control
Residual activity ([5]; 1.0E-05 M): 110 % of control
Residual activity ([5]; 1.0E-06 M): 101 % of control
Residual activity ([6]; 1.0E-05 M): 101 % of control
Residual activity ([6]; 1.0E-06 M): 103 % of control
